Measured values as given in patent US12227500B2, “Substituted pyrrolo[2,3-b]pyridines for suppressing toxic endoplasmic reticulum stress” (THE TRUSTEES OF COLUMBIA UNIVERSITY IN THE CITY OF NEW YORK, priority 2018, dated 2025).

Key:
Experiment in all cases: Radiolabeled ATP kinase assay, panel of 371 kinases (Table S6)
Type in all cases: biochemical
[1] = biological target: T1, panel of 371 human kinases (Homo sapiens, UniProt P00533); conditions: EGFR; 0.1 μM; 10 μM ATP; read-out: % Enzyme Activity (relative to DMSO controls)
T1 construct: purchased Reaction Biology Corp
Excerpt: (§1) ; FIG. 38C). […]. Further targeted analyses, such as genetic knock-down or knock-out, may be warranted to parse the role of these additional kinases in our model of neurodegeneration.

[2] = biological target: T2, panel of 371 human kinases (Homo sapiens, UniProt P29320); conditions: EPHA3; 0.1 μM; 10 μM ATP; read-out: % Enzyme Activity (relative to DMSO controls)
T2 construct: purchased Reaction Biology Corp
Excerpt: as §1

[3] = biological target: T3, panel of 371 human kinases (Homo sapiens, UniProt P32298); conditions: GRK4; 0.1 μM; 10 μM ATP; read-out: % Enzyme Activity (relative to DMSO controls)
T3 construct: purchased Reaction Biology Corp
Excerpt: as §1

[4] = biological target: T4, panel of 371 human kinases (Homo sapiens, UniProt P41240); conditions: CSK; 0.1 μM; 10 μM ATP; read-out: % Enzyme Activity (relative to DMSO controls)
T4 construct: purchased Reaction Biology Corp
Excerpt: as §1

[5] = biological target: T5, panel of 371 human kinases (Homo sapiens, UniProt P41743); conditions: PKCiota; 0.1 μM; 10 μM ATP; read-out: % Enzyme Activity (relative to DMSO controls)
T5 construct: purchased Reaction Biology Corp
Excerpt: as §1

[6] = biological target: T6, panel of 371 human kinases (Homo sapiens, UniProt P42680); conditions: TEC; 0.1 μM; 10 μM ATP; read-out: % Enzyme Activity (relative to DMSO controls)
T6 construct: purchased Reaction Biology Corp
Excerpt: as §1

[7] = biological target: T7, panel of 371 human kinases (Homo sapiens, UniProt P50613); conditions: CDK7/cyclin H; 0.1 μM; 10 μM ATP; read-out: % Enzyme Activity (relative to DMSO controls)
T7 construct: purchased Reaction Biology Corp
Excerpt: as §1

[8] = biological target: T8, panel of 371 human kinases (Homo sapiens, UniProt Q12851); conditions: for remaining activity at 0.1 µM: GCK/MAP4K2, 10 μM ATP, read-out: % Enzyme Activity (relative to DMSO controls)
T8 construct: purchased Reaction Biology Corp
T8 sequence (Q12851 1-820): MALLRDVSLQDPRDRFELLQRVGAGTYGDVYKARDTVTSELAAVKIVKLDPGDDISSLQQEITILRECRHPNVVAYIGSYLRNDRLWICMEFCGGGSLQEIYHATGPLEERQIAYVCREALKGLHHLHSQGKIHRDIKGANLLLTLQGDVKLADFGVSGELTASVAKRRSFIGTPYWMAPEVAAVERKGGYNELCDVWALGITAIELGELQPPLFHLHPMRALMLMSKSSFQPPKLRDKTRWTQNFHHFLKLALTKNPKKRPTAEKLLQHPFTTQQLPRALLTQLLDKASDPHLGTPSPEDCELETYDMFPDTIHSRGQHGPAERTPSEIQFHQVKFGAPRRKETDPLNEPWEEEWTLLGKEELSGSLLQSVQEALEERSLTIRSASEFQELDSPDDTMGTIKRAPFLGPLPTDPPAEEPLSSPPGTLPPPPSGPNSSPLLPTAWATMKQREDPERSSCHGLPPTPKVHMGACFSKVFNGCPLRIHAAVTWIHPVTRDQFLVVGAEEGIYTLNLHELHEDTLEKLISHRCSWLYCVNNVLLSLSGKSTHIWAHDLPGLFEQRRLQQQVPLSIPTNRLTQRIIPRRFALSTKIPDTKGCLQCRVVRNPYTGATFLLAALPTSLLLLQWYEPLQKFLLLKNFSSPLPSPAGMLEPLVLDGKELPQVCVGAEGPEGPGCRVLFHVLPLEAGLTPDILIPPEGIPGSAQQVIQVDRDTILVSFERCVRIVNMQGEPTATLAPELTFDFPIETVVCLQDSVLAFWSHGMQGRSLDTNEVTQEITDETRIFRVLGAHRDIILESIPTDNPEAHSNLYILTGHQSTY
Excerpt: as §1

[9] = biological target: T9, panel of 371 human kinases (Homo sapiens, UniProt Q13464); conditions: ROCK1; 0.1 μM; 10 μM ATP; read-out: % Enzyme Activity (relative to DMSO controls)
T9 construct: purchased Reaction Biology Corp
Excerpt: as §1

[10] = biological target: T10, panel of 371 human kinases (Homo sapiens, UniProt Q16513); conditions: PKN2/PRK2; 0.1 μM; 10 μM ATP; read-out: % Enzyme Activity (relative to DMSO controls)
T10 construct: purchased Reaction Biology Corp
Excerpt: as §1

[11] = biological target: T11, panel of 371 human kinases (Homo sapiens, UniProt Q86YV6); conditions: MYLK4; 0.1 μM; 10 μM ATP; read-out: % Enzyme Activity (relative to DMSO controls)
T11 construct: purchased Reaction Biology Corp
Excerpt: as §1

[12] = biological target: T12, panel of 371 human kinases (Homo sapiens, UniProt Q8IY84); conditions: NIM1; 0.1 μM; 10 μM ATP; read-out: % Enzyme Activity (relative to DMSO controls)
T12 construct: purchased Reaction Biology Corp
Excerpt: as §1

[13] = biological target: T13, panel of 371 human kinases (Homo sapiens, UniProt Q99986); conditions: VRK1; 0.1 μM; 10 μM ATP; read-out: % Enzyme Activity (relative to DMSO controls)
T13 construct: purchased Reaction Biology Corp
Excerpt: as §1

[14] = biological target: T14, panel of 371 human kinases (Homo sapiens, UniProt Q9H0K1); conditions: SIK2; 0.1 μM; 10 μM ATP; read-out: % Enzyme Activity (relative to DMSO controls)
T14 construct: purchased Reaction Biology Corp
Excerpt: as §1

[15] = biological target: T15, panel of 371 human kinases (Homo sapiens, UniProt Q9HAZ1); conditions: CLK4; 0.1 μM; 10 μM ATP; read-out: % Enzyme Activity (relative to DMSO controls)
T15 construct: purchased Reaction Biology Corp
Excerpt: as §1

[16] = biological target: T16, panel of 371 human kinases (Homo sapiens, UniProt Q9Y2K2); conditions: SIK3; 0.1 μM; 10 μM ATP; read-out: % Enzyme Activity (relative to DMSO controls)
T16 construct: purchased Reaction Biology Corp
Excerpt: as §1

[17] = biological target: T17, panel of 371 human kinases (Homo sapiens, UniProt Q9Y2U5); conditions: MEKK2; 0.1 μM; 10 μM ATP; read-out: % Enzyme Activity (relative to DMSO controls)
T17 construct: purchased Reaction Biology Corp
Excerpt: as §1

[18] = biological target: T18, panel of 371 human kinases (Homo sapiens, UniProt Q9Y6M4); conditions: CK1g3; 0.1 μM; 10 μM ATP; read-out: % Enzyme Activity (relative to DMSO controls)
T18 construct: purchased Reaction Biology Corp
Excerpt: as §1

T15 sequence (Q9HAZ1 whole entry): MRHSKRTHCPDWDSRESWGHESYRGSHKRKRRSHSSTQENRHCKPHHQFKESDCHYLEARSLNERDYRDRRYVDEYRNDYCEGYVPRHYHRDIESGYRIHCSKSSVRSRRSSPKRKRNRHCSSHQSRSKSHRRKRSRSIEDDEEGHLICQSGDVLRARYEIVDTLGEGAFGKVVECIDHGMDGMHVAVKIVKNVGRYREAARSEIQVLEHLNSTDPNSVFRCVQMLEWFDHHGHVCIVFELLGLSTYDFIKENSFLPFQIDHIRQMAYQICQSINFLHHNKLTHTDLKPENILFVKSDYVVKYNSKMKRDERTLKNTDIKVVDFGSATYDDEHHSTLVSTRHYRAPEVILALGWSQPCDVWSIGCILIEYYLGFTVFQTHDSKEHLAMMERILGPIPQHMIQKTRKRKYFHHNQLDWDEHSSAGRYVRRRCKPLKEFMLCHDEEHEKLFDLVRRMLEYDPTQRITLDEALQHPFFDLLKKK
T7 sequence (P50613 whole entry): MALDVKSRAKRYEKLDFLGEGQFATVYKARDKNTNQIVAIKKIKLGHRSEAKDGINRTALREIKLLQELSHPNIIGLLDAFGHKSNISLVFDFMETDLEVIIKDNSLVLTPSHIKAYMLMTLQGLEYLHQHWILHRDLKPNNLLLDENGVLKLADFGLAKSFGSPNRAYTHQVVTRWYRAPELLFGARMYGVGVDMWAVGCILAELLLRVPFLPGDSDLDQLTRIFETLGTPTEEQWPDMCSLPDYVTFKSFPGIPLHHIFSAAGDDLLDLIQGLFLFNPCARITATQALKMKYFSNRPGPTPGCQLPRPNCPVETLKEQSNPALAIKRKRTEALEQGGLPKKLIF
T14 sequence (Q9H0K1 whole entry): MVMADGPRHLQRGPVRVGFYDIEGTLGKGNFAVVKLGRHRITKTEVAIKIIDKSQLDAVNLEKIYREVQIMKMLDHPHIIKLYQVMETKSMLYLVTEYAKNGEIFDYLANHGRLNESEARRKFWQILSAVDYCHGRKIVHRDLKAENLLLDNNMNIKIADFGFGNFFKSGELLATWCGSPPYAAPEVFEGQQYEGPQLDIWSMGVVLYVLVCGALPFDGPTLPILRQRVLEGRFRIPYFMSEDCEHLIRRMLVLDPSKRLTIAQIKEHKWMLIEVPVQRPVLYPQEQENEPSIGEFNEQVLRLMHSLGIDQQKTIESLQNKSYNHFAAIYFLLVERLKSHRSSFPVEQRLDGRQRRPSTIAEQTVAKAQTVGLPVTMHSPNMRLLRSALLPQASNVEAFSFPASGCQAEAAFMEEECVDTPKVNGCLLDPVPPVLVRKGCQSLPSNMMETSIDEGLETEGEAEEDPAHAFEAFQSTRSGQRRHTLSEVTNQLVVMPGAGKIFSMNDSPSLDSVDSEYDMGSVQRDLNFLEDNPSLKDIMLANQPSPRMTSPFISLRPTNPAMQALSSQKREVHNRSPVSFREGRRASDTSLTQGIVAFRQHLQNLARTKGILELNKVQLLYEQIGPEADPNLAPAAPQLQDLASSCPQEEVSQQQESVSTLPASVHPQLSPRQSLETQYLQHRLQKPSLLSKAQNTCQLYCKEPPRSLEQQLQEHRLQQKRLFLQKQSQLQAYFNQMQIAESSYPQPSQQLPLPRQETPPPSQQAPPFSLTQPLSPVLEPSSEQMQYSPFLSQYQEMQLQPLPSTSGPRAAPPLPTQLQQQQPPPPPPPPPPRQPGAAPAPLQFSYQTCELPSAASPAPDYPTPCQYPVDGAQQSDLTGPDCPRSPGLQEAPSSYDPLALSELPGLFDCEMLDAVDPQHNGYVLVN
T3 sequence (P32298 whole entry): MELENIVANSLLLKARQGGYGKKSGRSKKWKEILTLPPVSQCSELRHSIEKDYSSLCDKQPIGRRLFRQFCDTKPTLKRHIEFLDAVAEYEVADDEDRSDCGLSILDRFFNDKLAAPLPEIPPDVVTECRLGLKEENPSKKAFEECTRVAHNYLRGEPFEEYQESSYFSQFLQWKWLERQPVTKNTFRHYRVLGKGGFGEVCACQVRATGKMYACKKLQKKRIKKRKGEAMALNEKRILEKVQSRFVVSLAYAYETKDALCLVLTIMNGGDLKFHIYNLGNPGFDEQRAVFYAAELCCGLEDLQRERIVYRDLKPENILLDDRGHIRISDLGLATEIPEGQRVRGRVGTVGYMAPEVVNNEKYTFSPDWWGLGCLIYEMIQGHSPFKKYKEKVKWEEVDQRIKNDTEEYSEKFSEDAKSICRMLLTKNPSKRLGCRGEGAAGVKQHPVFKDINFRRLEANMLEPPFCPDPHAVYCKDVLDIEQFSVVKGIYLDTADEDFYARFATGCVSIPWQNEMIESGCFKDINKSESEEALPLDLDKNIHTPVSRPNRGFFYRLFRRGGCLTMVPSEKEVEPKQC
T13 sequence (Q99986 whole entry): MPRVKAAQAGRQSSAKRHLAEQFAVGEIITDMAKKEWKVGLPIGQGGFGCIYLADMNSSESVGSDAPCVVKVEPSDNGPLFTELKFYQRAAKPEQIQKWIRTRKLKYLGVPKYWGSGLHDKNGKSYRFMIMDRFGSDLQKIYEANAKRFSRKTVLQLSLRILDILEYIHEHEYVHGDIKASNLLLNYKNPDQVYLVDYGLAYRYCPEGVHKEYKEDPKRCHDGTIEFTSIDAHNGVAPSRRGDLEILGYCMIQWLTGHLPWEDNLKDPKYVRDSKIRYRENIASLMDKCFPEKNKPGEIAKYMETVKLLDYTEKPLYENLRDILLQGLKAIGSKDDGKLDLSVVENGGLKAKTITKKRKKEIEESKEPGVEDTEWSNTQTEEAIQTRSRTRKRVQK
T4 sequence (P41240 whole entry): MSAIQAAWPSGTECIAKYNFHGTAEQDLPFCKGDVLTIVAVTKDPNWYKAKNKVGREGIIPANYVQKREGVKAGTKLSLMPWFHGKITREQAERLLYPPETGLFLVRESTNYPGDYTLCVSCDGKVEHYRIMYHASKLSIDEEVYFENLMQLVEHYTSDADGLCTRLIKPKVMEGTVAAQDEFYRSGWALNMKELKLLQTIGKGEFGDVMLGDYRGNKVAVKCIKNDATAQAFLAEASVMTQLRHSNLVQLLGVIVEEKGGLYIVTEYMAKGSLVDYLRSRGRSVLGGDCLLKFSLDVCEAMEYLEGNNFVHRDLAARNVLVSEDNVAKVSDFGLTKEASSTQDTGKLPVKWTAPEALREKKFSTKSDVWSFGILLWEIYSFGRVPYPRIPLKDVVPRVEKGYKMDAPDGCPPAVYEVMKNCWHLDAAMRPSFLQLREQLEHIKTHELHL
T6 sequence (P42680 whole entry): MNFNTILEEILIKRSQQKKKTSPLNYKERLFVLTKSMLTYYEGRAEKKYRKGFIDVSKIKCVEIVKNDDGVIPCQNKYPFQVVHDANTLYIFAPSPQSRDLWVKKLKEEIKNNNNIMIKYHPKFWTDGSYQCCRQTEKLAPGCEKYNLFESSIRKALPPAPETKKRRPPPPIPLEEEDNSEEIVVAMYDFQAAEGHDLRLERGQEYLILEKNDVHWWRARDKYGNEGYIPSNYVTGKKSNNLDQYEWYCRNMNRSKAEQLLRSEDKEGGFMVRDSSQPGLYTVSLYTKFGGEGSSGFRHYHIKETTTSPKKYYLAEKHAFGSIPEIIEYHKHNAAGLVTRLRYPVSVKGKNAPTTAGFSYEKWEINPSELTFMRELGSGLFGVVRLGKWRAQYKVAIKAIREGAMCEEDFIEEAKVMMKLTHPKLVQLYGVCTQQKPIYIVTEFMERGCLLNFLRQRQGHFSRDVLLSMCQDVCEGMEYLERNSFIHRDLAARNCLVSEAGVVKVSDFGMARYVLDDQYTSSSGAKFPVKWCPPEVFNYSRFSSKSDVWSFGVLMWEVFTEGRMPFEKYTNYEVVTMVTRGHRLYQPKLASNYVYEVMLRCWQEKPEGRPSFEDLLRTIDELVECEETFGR
T18 sequence (Q9Y6M4 whole entry): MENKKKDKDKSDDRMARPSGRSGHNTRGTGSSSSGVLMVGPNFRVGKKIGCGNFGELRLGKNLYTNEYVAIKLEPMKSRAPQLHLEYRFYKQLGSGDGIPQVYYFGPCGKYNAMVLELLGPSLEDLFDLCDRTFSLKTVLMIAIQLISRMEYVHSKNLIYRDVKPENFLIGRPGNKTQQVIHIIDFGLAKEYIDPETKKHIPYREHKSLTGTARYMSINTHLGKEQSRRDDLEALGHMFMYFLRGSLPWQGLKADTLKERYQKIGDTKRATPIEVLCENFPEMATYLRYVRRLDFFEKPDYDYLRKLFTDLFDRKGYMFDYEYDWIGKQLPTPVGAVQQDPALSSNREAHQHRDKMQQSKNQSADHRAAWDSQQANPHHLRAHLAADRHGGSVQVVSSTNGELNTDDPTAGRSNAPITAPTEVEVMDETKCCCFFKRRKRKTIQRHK
T11 sequence (Q86YV6 whole entry): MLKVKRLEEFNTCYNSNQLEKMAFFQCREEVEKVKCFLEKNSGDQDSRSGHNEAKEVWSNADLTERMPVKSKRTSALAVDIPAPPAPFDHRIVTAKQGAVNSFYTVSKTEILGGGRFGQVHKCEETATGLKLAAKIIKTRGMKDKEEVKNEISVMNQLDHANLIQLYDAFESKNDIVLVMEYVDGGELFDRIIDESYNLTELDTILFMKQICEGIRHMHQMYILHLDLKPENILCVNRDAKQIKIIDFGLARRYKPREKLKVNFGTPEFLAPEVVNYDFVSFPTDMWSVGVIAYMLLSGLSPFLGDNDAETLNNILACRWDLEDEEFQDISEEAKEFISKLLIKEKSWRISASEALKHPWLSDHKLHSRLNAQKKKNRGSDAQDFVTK

Structure (SMILES)	remaining activity at 0.1 µM [1] [%]	remaining activity at 0.1 µM [2] [%]	remaining activity at 0.1 µM [3] [%]	remaining activity at 0.1 µM [4] [%]	remaining activity at 0.1 µM [5] [%]	remaining activity at 0.1 µM [6] [%]	remaining activity at 0.1 µM [7] [%]	remaining activity at 0.1 µM [8] [%]	remaining activity at 0.1 µM [9] [%]	remaining activity at 0.1 µM [10] [%]	remaining activity at 0.1 µM [11] [%]	remaining activity at 0.1 µM [12] [%]	remaining activity at 0.1 µM [13] [%]	remaining activity at 0.1 µM [14] [%]	remaining activity at 0.1 µM [15] [%]	remaining activity at 0.1 µM [16] [%]	remaining activity at 0.1 µM [17] [%]	remaining activity at 0.1 µM [18] [%]	fold change in GCK activity following 12k exposure relative to 1 ([8]; 0.025 μM) [fold]
CN1CCN(Cc2ccc(-c3cnc4[nH]cc(-c5ccc6[nH]ccc6c5)c4c3)cc2)CC1 [Compound 1, 3-(1H-Indol-5-yl)-5-(4-((4-methylpiperazin-1-yl)methyl)phenyl)-1H-pyrrolo[2,3-b]pyridine, reference compound]	103	99.8	106	87.5	100	106	91.4	63.6	94.7	81.6	53.6	106	95.8	83.2	94.5	75.5	102	92.2	
OCCN1CCN(Cc2ccc(-c3cnc4[nH]cc(-c5cccc(Cl)c5)c4c3)cc2)CC1 [Compound 12k, 2-(4-(4-(3-(3-Chlorophenyl)-1H-pyrrolo[2,3-b]pyridin-5-yl)benzyl)piperazin-1-yl)ethan-1-ol]	96.2	98.2	106	90.8	93	99.9	89.2	10.2	79.2	59.5	37.2	105	88.3	59.8	71.9	92.3	93.3	92.4	6.22
